Measured values published in Sander's compilation of Henry's law constants (doi:10.1093/jnci/56.6.1125).

Experiment: Henry solubility constant Hcp at 310 K (mol/(m3 Pa))
Conditions: reference: Mirvish et al. (1976)

| SMILES | Henry solubility constant Hcp at 310 K |
| --- | --- |
| CC1CN(N=O)CC(C)N1N=O (stereo not given) [2,6-dimethyldinitrosopiperazine] | > 190 |
| CC1CN(N=O)CC(C)O1 (stereo not given) [2,6-dimethylnitrosomorpholine] | 35 |
| O=NN1CCOCC1 [4-nitrosomorpholine] | 390 |
| CC(C)N(N=O)C(C)C [N-(1-methylethyl)-N-nitroso-2-propanamine] | 1.2 |
| CN(Cc1ccccc1)N=O [N-methyl-N-nitrosobenzenemethanamine] | 0.79 |
| CCOC(=O)N(C)N=O [N-nitroso-N-methylurethane] | 0.39 |
| CCCCN(CCCC)N=O [N-nitrosodi-N-butylamine] | 0.72 |
| CCN(CC)N=O [N-nitrosodiethylamine] | 1.4 |
| CN(C)N=O [N-nitrosodimethylamine] | 5.2 |
| CCCN(CCC)N=O [N-nitrosodipropylamine] | 1.8 |
| O=NN1CCCCC1 [N-nitrosopiperidine] | 11 |
| O=NN1CCN(N=O)CC1 [dinitrosopiperazine] | > 190 |
| CCCCN(CC)N=O [ethylbutylnitrosamine] | 0.99 |
| CCN(C#N)N=O [ethylnitrosocyanamide] | 0.26 |
| CCCCN(C)N=O [methylbutylnitrosamine] | 1.7 |
| CC(=O)N(C)N=O [methylnitrosoacetamide] | 0.086 |
| CN(N=O)C(N)=O [methylnitrosourea] | > 190 |
| CCCCCN(C)N=O [methylpentylnitrosamine] | 2 |
| O=NN1CCC1 [nitrosoazetidine] | > 190 |
| O=NN1CCCCCC1 [nitrosohexamethyleneimine] | 43 |
